# According to patent US4532254A, “Inhibitor of aldose reductase” (Kaken Pharmaceutical Co., Ltd., priority 1983, dated 1985):
# Like-named read-outs stand apart in the source and are kept apart here.
# Columns and labels:
# [1] = biological target: T1, rat lens AR (Rattus norvegicus, UniProt P07943); assay: Inhibition of rat lens aldose reductase (RLAR), NADPH oxidation at 340 nm; format: biochemical, rat (Wistar strain); settings: for inhibition at 10 µM: 10^-5 M; for inhibition at 10 µM / inhibition at 1 µM / inhibition at 0.1 µM: read-out: Inhibition against enzyme activity (%); for inhibition at 1 µM: 10^-6 M; for inhibition at 0.1 µM: 10^-7 M
# T1 construct: Rat lenses were removed from eyes of rats of the Wistar strain; from tissue; host or cells: lens of Wistar rats; enzyme purified by ammonium sulfate, DEAE-Sephacel, Matrex gel red A and Sephadex G-75
# Description: (§1) The inhibitory activities against AR of LARI-1, LARI-2, LARI-3 and LARI-4 were determined according to the following method.
# (§2) In Recipe Example, the followings were used. NADPH was purchased from the Oriental Yeast Co., Ltd. DL-Glyceraldehyde and quercitrin were purchased from Nakarai Chemicals, Ltd. DEAE-Sephacel and Sephadex G-75 were purchased from Pharmacia Fine Chemicals. Matrex gel red A was purchased from the Amicon Co. All other chemicals were of the highest grade commercially available.
# (§3) Rat lenses were removed from eyes of rats of the Wistar strain weighing 200 to 250 g. Bovine eyes were obtained from a local abattoir, and the lenses were removed and frozen until needed.
# (§4) Usually a 10^-3 M solution was prepared and diluted to the desired concentrations with propylene glycol. To the reaction mixture were added aliquots of the diluted solution to yield concentrations of 10^-8 M to 10^-5 M and a propylene glycol concentration of 1%.
# (§5) AR assays were conducted according to the procedure of Hayman and Kinoshita (J. Biol. Chem. 240, p. 877 (1965)), except for the addition of ammonium sulfate instead of lithium sulfate to the reaction mixture. Assays were performed at 30° C. in 0.1M sodium phosphate buffer (pH 6.2) containing 0.4M ammonium sulfate, 10 mM DL-glyceraldehyde, 0.16 mM NADPH and the enzyme (0.010 to 0.016 unit) in a total volume of 1.0 ml. The effects of inhibitors on the enzyme activity were determined in the reaction mixture containing 10 μl. of each inhibitor solution at the desired concentrations. The blank reference to correct for non-specific reduction of NADPH contained all of the above compounds except DL-glyceraldehyde. The reaction was initiated by the addition of DL-glyceraldehyde, and the rate of NADPH oxidation was followed by recording the decrease in absorbance at 340 nm on a Gilford model 250 spectrophotometer.
# (§6) BLAR and RLAR were purified according to the method of Inagaki et al (Archs Biochem. Biophys. 216, p. 337 (1982)). Briefly, a 40 to 75% ammonium sulfate fraction was subjected to chromatography on DEAE-Sephacel, followed by two column chromatographic steps, i.e. affinity chromatography using Matrex gel red A and gel filtration on Sephadex G-75.
# (§7) The concentration of inhibitor required for eliciting a 50% inhibition (IC50) was determined according to the method of Kador et al (Docum. Ophthal. Proc. Series 18, p. 117 (1979)).
# [2] = biological target: T2, bovine lens AR (Bos taurus, UniProt P16116); assay: Inhibition of bovine lens aldose reductase (BLAR), NADPH oxidation at 340 nm; format: biochemical; settings: for inhibition at 10 µM: 10^-5 M; for inhibition at 10 µM / inhibition at 1 µM / inhibition at 0.1 µM: read-out: Inhibition against enzyme activity (%); for inhibition at 1 µM: 10^-6 M; for inhibition at 0.1 µM: 10^-7 M; for IC50: Table 2, IC50 in M multiplied by 10^6
# T2 construct: Bovine eyes were obtained from a local abattoir, and the lenses were removed and frozen until needed; from tissue; host or cells: bovine lens from a local abattoir; enzyme purified by ammonium sulfate, DEAE-Sephacel, Matrex gel red A and Sephadex G-75
# Description: as §1, §2, §3, §4, §5, §6, §7
# [3] = Table 2, IC50 in M multiplied by 10^6, read-out: IC50 (M) × 10^6
# [4] = read-out: IC50 (inhibition of RLAR)
Structure (SMILES),inhibition at 10 µM [1] [%],inhibition at 1 µM [1] [%],inhibition at 0.1 µM [1] [%],"IC50 [1, 3] [M]","IC50 [1, 4] [M]",inhibition at 10 µM [2] [%],inhibition at 1 µM [2] [%],inhibition at 0.1 µM [2] [%],IC50 [2] [nM]
"COc1c(OC)c(OC)c2c(=O)cc(-c3ccc(O)cc3)oc2c1OC [LARI-2, 4'-hydroxy-5,6,7,8-tetramethoxyflavone]",91,81,44,1.6e-07,1.6e-07,94,80,24,290
"COc1c(O)c(OC)c2c(=O)cc(-c3ccc(O)cc3)oc2c1OC [LARI-3, 4',6-dihydroxy-5,7,8-trimethoxyflavone]",92,74,36,2.5e-07,2.5e-07,95,70,18,420
"COc1c(O)c(OC)c2c(=O)cc(-c3ccc(O)c(O)c3)oc2c1OC [LARI-1, 3',4',6-trihydroxy-5,7,8-trimethoxyflavone]",96,92,73,3.6e-08,3.6e-08,100,91,35,180
